Experimental data from patent US4755598A, “1 '-(substituted)ethyl-7β-[2-(2-aminothiazol-4-yl)acetamido]-3-[[[1-(2 -dimethylaminoethyl)-1H-tetrazol-5-yl]thio]methyl]ceph-3-em-4-carboxylate derivatives having antibacterial utility” (Takeda Chemical Industries, Ltd., priority 1983, dated 1988).
Like-named read-outs stand apart in the source and are kept apart here.

How the values were obtained:
[1] = mouse, in vivo; for Plasma level of non-ester compound / AUC: po, 100 mg/kg
Description: The compounds of Examples 2, 4, 6, 7 and 8 and the 1-(ethoxycarbonyloxy)ethyl ester of compound [II] (briefly, compound A) are each administered orally to a mouse in a dose of 100 mg/kg in terms of non-ester compound, i.e., compound [II]. At 0.25, 0.5, 1.0 and 2.0 hours after administration, the concentration of the non-ester compound in the mouse plasma is determined by the cup assay using Proteus mirabilis Eb313 as the test organism and the area under the concentration-time curve for 0-2 hours (AUC) is calculated.
As control, the non-ester compound is administered subcutaneously to a mouse and the AUC value is similarly calculated.

[2] = tested on: gram-negative bacteria such as Escherichia coli, Klebsiella pneumoniae, Proteus vulgaris, Proteus mirabilis and Proteus morganii; settings: cited from earlier work
[3] = tested on: bacteria; settings: cited from earlier work
[4] = tested on: gram-positive bacteria such as Staphylococcus aureus; settings: cited from earlier work

Row | Structure (SMILES) | Bioavailability ([1]; 120 min) [%] | Plasma level of non-ester compound ([1]; 15 min) [ng/mL] | Plasma level of non-ester compound ([1]; 30 min) [ng/mL] | Plasma level of non-ester compound ([1]; 60 min) [ng/mL] | AUC ([1]; 120 min) [ng·h/mL] | Plasma level of non-ester compound ([1]; 120 min) [ng/mL] | Bioavailability ([1]; sc, 120 min) [%] | antibacterial activity [2] | antibacterial activity [3] | antibacterial activity [4]
1 | CC(C)CCOC(=O)OC(C)OC(=O)C1=C(CSc2nnnn2CCN(C)C)CS[C@@H]2[C@H](NC(=O)Cc3csc(N)n3)C(=O)N12 (stereo partly drawn) [Example 2, 1-(3-Methylbutoxycarbonyloxy)ethyl 7β-[2-(2-aminothiazol-4-yl)acetamido]-3-[[[1-(2-dimethylaminoethyl)-1H-tetrazol-5-yl]thio]methyl]ceph-3-em-4-carboxylate] | 90.8 | 65800 | 28600 | 9660 | 35300 | 1680 | – | – | – | –
2 | CCC(CC)COC(=O)OC(C)OC(=O)C1=C(CSc2nnnn2CCN(C)C)CS[C@@H]2[C@H](NC(=O)Cc3csc(N)n3)C(=O)N12 (stereo partly drawn) [Example 4, 1-(2-Ethylbutoxycarbonyloxy)ethyl 7β-[2-(2-aminothiazol-4-yl)acetamido]-3-[[[1-(2-dimethylaminoethyl)-1H-tetrazol-5-yl]thio]methyl]ceph-3-em-4-carboxylate] | 83.6 | 43900 | 39500 | 8730 | 32400 | 220 | – | – | – | –
3 | CN(C)CCn1nnnc1SCC1=C(C(=O)O)N2C(=O)[C@@H](NC(=O)Cc3csc(N)n3)[C@H]2SC1 [compound [II], 7β-[2-(2-aminothiazol-4-yl)acetamido]-3-[[[1-(2-dimethylaminoethyl]-1H-tetrazol-5-yl]thio]methyl]ceph-3-em-4-carboxylic acid] | – | – | – | – | – | – | 100 | potent antibacterial activity | strong antibacterial activity | potent antibacterial activity
4 | CCCC(C)COC(=O)OC(C)OC(=O)C1=C(CSc2nnnn2CCN(C)C)CS[C@@H]2[C@H](NC(=O)Cc3csc(N)n3)C(=O)N12 (stereo partly drawn) [Example 6, 1-(2-Methylpentyloxycarbonyloxy)ethyl 7β-[2-(2-aminothiazol-4-yl)acetamido]-3-[[[1-(2-dimethylaminoethyl)-1H-tetrazol-5-yl]thio]methyl]ceph-3-em-4-carboxylate] | 80.1 | 50200 | 31000 | 7310 | 31100 | 2860 | – | – | – | –
5 | CCOC(=O)OC(C)OC(=O)C1=C(CSc2nnnn2CCN(C)C)CS[C@@H]2[C@H](NC(=O)Cc3csc(N)n3)C(=O)N12 (stereo partly shown) [Compound A, 1-(ethoxycarbonyloxy)ethyl ester of compound [II], reference compound] | 23.9 | 14700 | 9200 | 2400 | 9280 | 700 | – | – | – | –
6 | CCCC(C)OC(=O)OC(C)OC(=O)C1=C(CSc2nnnn2CCN(C)C)CS[C@@H]2[C@H](NC(=O)Cc3csc(N)n3)C(=O)N12 (stereo partly drawn) [Example 8, 1-(1-Methylbutoxycarbonyloxy)ethyl 7β-[2-(2-aminothiazol-4-yl)acetamido]-3-[[[1-(2-dimethylaminoethyl)-1H-tetrazol-5-yl]thio]methyl]ceph-3-em-4-carboxylate] | 110.6 | 62700 | 48900 | 11200 | 42500 | 860 | – | – | – | –
7 | CC(OC(=O)OCC(C)(C)C)OC(=O)C1=C(CSc2nnnn2CCN(C)C)CS[C@@H]2[C@H](NC(=O)Cc3csc(N)n3)C(=O)N12 (stereo partly drawn) [Example 7, 1-(2,2-Dimethylpropoxycarbonyloxy)ethyl 7β-[2-(2-aminothiazol-4-yl)acetamido]-3-[[[1-(2-dimethylaminoethyl)-1H-tetrazol-5-yl]thio]methyl]ceph-3-em-4-carboxylate] | 92.0 | 65700 | 34500 | 7230 | 35700 | 1860 | – | – | – | –
